Legend:
[1] = target: recombinant rat α1β3γ2 receptors (Rattus norvegicus, UniProt P18508+P62813); assay: Two-electrode voltage clamp of GABA-induced chloride currents in Xenopus oocytes; type: cell-based; conditions: for efficacy (% GABA EC3): α1β3γ2, ns = not significant
[2] = target: recombinant rat α1β3γ2F77I receptors (Rattus norvegicus, UniProt P18508+P62813, F115I); assay: as above; type: cell-based; conditions: for efficacy (% GABA EC3): α1β3γ2F77I, ns = not significant
[3] = target: recombinant rat α2β3γ2 receptors (Rattus norvegicus, UniProt P18508+P23576); assay: as above; type: cell-based
[4] = target: recombinant rat α2β3γ2F77I receptors (Rattus norvegicus, UniProt P18508+P23576, F115I); assay: as above; type: cell-based; conditions: for efficacy (% GABA EC3): α2β3γ2F77I, ns = not significant
[5] = target: recombinant rat α3β3γ2 receptors (Rattus norvegicus, UniProt P18508+P20236); assay: as above; type: cell-based; conditions: for efficacy (% GABA EC3): α3β3γ2, ns = not significant
[6] = target: recombinant rat α3β3γ2F77I receptors (Rattus norvegicus, UniProt P18508+P20236, F115I); assay: as above; type: cell-based; conditions: for efficacy (% GABA EC3): α3β3γ2F77I, ns = not significant
[7] = target: recombinant rat α4β3γ2 receptors (Rattus norvegicus, UniProt P18508+P28471); assay: as above; type: cell-based; conditions: for efficacy (% GABA EC3): α4β3γ2, ns = not significant
[8] = target: recombinant rat α5β3γ2 receptors (Rattus norvegicus, UniProt P18508+P19969); assay: as above; type: cell-based; conditions: for efficacy (% GABA EC3): α5β3γ2, ns = not significant
[9] = target: recombinant rat α5β3γ2F77I receptors (Rattus norvegicus, UniProt P18508+P19969, F115I); assay: as above; type: cell-based; conditions: for efficacy (% GABA EC3): α5β3γ2F77I, ns = not significant
[10] = target: recombinant rat α6β3γ2 receptors (Rattus norvegicus, UniProt P18508+P30191); assay: as above; type: cell-based; conditions: for efficacy (% GABA EC3): α6β3γ2, ns = not significant
[11] = system: GABAA receptors containing the γ2F77I mutation; assay: Modulation of GABA EC3 in receptors containing the γ2F77I mutation; type: cell-based, rat; conditions: up to 100 nM
[12] = target: recombinant rat α4β3γ2F77I receptors (Rattus norvegicus, UniProt P18508+P28471, F115I); assay: Two-electrode voltage clamp of GABA-induced chloride currents in Xenopus oocytes; type: cell-based; conditions: 10 μM, ns = not significant
[13] = read-out: efficacy (% GABA EC3)
[14] = 10 nM, α2β3γ2, ns = not significant
[15] = 100 nM, α2β3γ2, ns = not significant

Sequence of recombinant rat α1β3γ2 receptors (P62813 28-455): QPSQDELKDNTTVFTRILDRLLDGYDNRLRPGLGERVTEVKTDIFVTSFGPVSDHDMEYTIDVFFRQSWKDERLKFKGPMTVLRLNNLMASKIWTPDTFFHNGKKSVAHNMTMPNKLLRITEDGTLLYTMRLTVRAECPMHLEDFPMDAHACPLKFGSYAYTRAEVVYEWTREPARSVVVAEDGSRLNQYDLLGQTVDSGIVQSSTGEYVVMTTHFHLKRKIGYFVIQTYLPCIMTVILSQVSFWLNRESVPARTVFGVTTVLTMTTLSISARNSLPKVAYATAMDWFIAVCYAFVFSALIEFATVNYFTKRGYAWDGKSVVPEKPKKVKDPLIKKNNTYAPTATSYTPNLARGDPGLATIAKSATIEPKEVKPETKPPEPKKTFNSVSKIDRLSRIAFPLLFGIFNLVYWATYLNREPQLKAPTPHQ
Sequence of recombinant rat α1β3γ2 receptors (P63079 26-473 partner): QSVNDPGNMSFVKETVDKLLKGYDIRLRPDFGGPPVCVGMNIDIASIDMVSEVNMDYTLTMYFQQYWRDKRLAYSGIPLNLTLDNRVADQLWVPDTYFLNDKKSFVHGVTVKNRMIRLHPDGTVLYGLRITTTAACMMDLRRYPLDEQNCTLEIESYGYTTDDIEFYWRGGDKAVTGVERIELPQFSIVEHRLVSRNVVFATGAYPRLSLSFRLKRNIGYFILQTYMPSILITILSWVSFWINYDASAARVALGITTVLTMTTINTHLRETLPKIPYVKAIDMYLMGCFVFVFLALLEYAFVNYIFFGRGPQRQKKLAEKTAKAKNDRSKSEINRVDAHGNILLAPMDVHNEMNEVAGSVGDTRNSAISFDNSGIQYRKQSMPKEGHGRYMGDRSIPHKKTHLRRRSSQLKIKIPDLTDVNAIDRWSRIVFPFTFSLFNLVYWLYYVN
Sequence of recombinant rat α1β3γ2 receptors (P18508 39-466): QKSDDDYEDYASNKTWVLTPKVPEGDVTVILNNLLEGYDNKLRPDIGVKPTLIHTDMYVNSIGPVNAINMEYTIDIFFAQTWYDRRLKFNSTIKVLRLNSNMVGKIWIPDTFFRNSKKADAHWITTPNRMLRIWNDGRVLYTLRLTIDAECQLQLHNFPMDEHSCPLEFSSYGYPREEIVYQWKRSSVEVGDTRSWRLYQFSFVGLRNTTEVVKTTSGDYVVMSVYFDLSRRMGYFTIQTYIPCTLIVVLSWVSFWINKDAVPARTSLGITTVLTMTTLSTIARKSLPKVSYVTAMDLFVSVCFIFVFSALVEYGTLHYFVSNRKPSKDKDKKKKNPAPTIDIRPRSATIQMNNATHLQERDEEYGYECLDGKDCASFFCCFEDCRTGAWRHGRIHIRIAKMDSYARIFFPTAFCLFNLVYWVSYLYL
Sequence of recombinant rat α1β3γ2F77I receptors (P62813 28-455): as the sequence (P62813 28-455) above
Sequence of recombinant rat α1β3γ2F77I receptors (P63079 26-473 partner): as the sequence (P63079 26-473 partner) above
Sequence of recombinant rat α1β3γ2F77I receptors (P18508 39-466 F115I): as the sequence (P18508 39-466) above, with F77I counted along it
Sequence of recombinant rat α4β3γ2 receptors (P28471 36-552): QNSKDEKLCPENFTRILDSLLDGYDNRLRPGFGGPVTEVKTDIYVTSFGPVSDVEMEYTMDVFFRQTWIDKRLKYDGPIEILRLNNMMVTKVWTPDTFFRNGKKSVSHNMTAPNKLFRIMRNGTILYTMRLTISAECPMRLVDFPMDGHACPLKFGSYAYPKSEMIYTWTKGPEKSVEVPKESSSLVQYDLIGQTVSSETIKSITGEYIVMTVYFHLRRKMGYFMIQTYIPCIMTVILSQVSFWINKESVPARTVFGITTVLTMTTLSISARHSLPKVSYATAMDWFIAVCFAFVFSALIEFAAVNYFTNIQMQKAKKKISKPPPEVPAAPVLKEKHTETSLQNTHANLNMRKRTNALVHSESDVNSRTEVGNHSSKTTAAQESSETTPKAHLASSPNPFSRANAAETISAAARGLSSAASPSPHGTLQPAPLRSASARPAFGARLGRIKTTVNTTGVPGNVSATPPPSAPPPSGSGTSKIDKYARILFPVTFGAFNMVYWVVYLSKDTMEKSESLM
Sequence of recombinant rat α4β3γ2 receptors (P63079 26-473 partner): as the sequence (P63079 26-473 partner) above
Sequence of recombinant rat α4β3γ2 receptors (P18508 39-466): as the sequence (P18508 39-466) above

## COCc1c(C(=O)OC(C)C)ncc2[nH]c3ccc(OCc4ccccc4)cc3c12 [Abecarnil, Isopropyl-6-benzyloxy-4-methoxymethyl-β-carboline-3-carboxylate]
[1]
  EC50: > 9000 nM
[1]; [13]
  activity at 0.01 µM: 192 ± 31%
  activity at 0.1 µM: 330 ± 58%
  activity at 1 µM: 407 ± 83%
  activity at 10 µM: 640 ± 157%
[2]; 10 nM
  efficacy (% GABA EC3): ns
[2]; 100 nM
  efficacy (% GABA EC3): ns
[2]; [13]
  activity at 1 µM: 179 ± 25%
  activity at 10 µM: 279 ± 42%
[3]
  EC50: > 1000 nM
[3]; [14]
  efficacy (% GABA EC3): ns
[3]; [15]
  efficacy (% GABA EC3): ns
[3]; read-out: efficacy (% GABA EC3), 1 μM, α2β3γ2, ns = not significant
  activity at 1 µM: 261 ± 45%
[3]; read-out: efficacy (% GABA EC3), 10 μM, α2β3γ2, ns = not significant
  activity at 10 µM: 353 ± 62%
[4]; 10 nM
  efficacy (% GABA EC3): ns
[4]; 100 nM
  efficacy (% GABA EC3): ns
[4]; [13]
  activity at 1 µM: 206 ± 16%
  activity at 10 µM: 420 ± 29%
[5]
  EC50: > 2000 nM
[5]; 10 nM
  efficacy (% GABA EC3): ns
[5]; [13]
  activity at 0.1 µM: 216 ± 44%
  activity at 1 µM: 320 ± 71%
  activity at 10 µM: 480 ± 100%
[6]; 10 nM
  efficacy (% GABA EC3): ns
[6]; 100 nM
  efficacy (% GABA EC3): ns
[6]; [13]
  activity at 1 µM: 192 ± 4%
  activity at 10 µM: 384 ± 24%
[7]; 1 μM
  efficacy (% GABA EC3): ns
[7]; [13]
  activity at 10 µM: 279 ± 81%
[8]; 10 nM
  efficacy (% GABA EC3): ns
[8]; 100 nM
  efficacy (% GABA EC3): ns
[8]; [13]
  activity at 1 µM: 169 ± 23%
  activity at 10 µM: 232 ± 38%
[9]; 10 nM
  efficacy (% GABA EC3): ns
[9]; 100 nM
  efficacy (% GABA EC3): ns
[9]; [13]
  activity at 1 µM: 177 ± 11%
  activity at 10 µM: 283 ± 7%
[10]; 1 μM
  efficacy (% GABA EC3): ns
[10]; [13]
  activity at 10 µM: 218 ± 13%
[11]
  activity in the mutated receptors: inactive

## CCc1c(C(=O)OC)ncc2[nH]c3cc(OC)c(OC)cc3c12 [DMCM, methyl-6,7-dimethoxy-4-ethyl-β-carboline-3-carboxylate]
[1]; 10 nM
  efficacy (% GABA EC3): 87 ± 8 % GABA EC3
[1]; 100 nM
  efficacy (% GABA EC3): 79 ± 11 % GABA EC3
[1]; 1 μM
  efficacy (% GABA EC3): ns
[1]; 10 μM
  efficacy (% GABA EC3): 232 ± 54 % GABA EC3
[2]; 10 nM
  efficacy (% GABA EC3): ns
[2]; 100 nM
  efficacy (% GABA EC3): ns
[2]; 1 μM
  efficacy (% GABA EC3): 123 ± 3 % GABA EC3
[2]; 10 μM
  efficacy (% GABA EC3): 269 ± 3 % GABA EC3
[3]; [14]
  efficacy (% GABA EC3): 71 ± 7 % GABA EC3
[3]; [15]
  efficacy (% GABA EC3): 54 ± 5 % GABA EC3
[3]; 1 μM, α2β3γ2, ns = not significant
  efficacy (% GABA EC3): 54 ± 3 % GABA EC3
[3]; 10 μM, α2β3γ2, ns = not significant
  efficacy (% GABA EC3): ns
[4]; 10 nM
  efficacy (% GABA EC3): 103 ± 1 % GABA EC3
[4]; 100 nM
  efficacy (% GABA EC3): 111 ± 2 % GABA EC3
[4]; 1 μM
  efficacy (% GABA EC3): 123 ± 1 % GABA EC3
[4]; 10 μM
  efficacy (% GABA EC3): 283 ± 17 % GABA EC3
[5]; 10 nM
  efficacy (% GABA EC3): 78 ± 1 % GABA EC3
[5]; 100 nM
  efficacy (% GABA EC3): 69 ± 1 % GABA EC3
[5]; 1 μM
  efficacy (% GABA EC3): 75 ± 3 % GABA EC3
[5]; 10 μM
  efficacy (% GABA EC3): 185 ± 15 % GABA EC3
[6]; 10 nM
  efficacy (% GABA EC3): ns
[6]; 100 nM
  efficacy (% GABA EC3): ns
[6]; 1 μM
  efficacy (% GABA EC3): 126 ± 5 % GABA EC3
[6]; 10 μM
  efficacy (% GABA EC3): 281 ± 26 % GABA EC3
[7]; 10 nM
  efficacy (% GABA EC3): ns
[7]; 100 nM
  efficacy (% GABA EC3): 77 ± 1 % GABA EC3
[7]; 1 μM
  efficacy (% GABA EC3): 88 ± 2 % GABA EC3
[7]; 10 μM
  efficacy (% GABA EC3): 155 ± 18 % GABA EC3
[12]
  efficacy (% GABA EC3): 155 ± 9 % GABA EC3
[8]; 10 nM
  efficacy (% GABA EC3): 53 ± 4 % GABA EC3
[8]; 100 nM
  efficacy (% GABA EC3): 52 ± 5 % GABA EC3
[8]; 1 μM
  efficacy (% GABA EC3): 56 ± 6 % GABA EC3
[8]; 10 μM
  efficacy (% GABA EC3): 145 ± 14 % GABA EC3
[9]; 10 nM
  efficacy (% GABA EC3): ns
[9]; 100 nM
  efficacy (% GABA EC3): ns
[9]; 1 μM
  efficacy (% GABA EC3): ns
[9]; 10 μM
  efficacy (% GABA EC3): 211 ± 40 % GABA EC3
[10]; 10 nM
  efficacy (% GABA EC3): ns
[10]; 100 nM
  efficacy (% GABA EC3): 118 ± 9 % GABA EC3
[10]; 1 μM
  efficacy (% GABA EC3): 189 ± 21 % GABA EC3
[10]; 10 μM
  efficacy (% GABA EC3): 353 ± 22 % GABA EC3

Source: paper PMC7615656 (European journal of pharmacology, 2010)
